ChEMBL document CHEMBL6177928, “Probing structural requirements for thiazole-based mimetics of sunitinib as potent VEGFR-2 inhibitors” (RSC Med Chem, 2025)

How the values were obtained:
HeLa = test: cells; settings: Homo sapiens, 48 h
Description: Antitumor activity against human HeLa cells assessed as inhibition of cell viability incubated for 48 hrs by MTT assay

HCT-116 = test: cells; settings: Homo sapiens, HCT-116, 48 h
Description: Antitumor activity against human HCT-116 cells assessed as inhibition of cell viability incubated for 48 hrs by MTT assay

HepG2 = test: cells; settings: Homo sapiens, HepG2, 48 h
Description: Antitumor activity against human HepG2 cells assessed as inhibition of cell viability incubated for 48 hrs by MTT assay

MCF7 = test: cells; settings: Homo sapiens, MCF7, 48 h
Description: Antitumor activity against human MCF7 cells assessed as inhibition of cell viability incubated for 48 hrs by MTT assay

HEp-2 = test: cells; settings: Homo sapiens, HEp-2, 48 h
Description: Antitumor activity against human HEp-2 cells assessed as inhibition of cell viability incubated for 48 hrs by MTT assay

WISH = test: Cytotoxicity against human WISH cells at up to 50 uM incubated for 48 hrs by MTT assay; format: toxicity, cell-based
WI-38 = test: Cytotoxicity against human WI-38 cells up to 50 uM incubated for 48 hrs by MTT assay; format: toxicity, cell-based; settings: wi-38, 48 h
[1] = Cytotoxicity against human WISH cells incubated for 48 hrs by MTT assay; format: toxicity, cell-based
[2] = Cytotoxicity against human WI-38 cells incubated for 48 hrs by MTT assay; format: toxicity, cell-based

Structure (SMILES) | IC50 (HeLa) [µM] | IC50 (HCT-116) [µM] | IC50 (HepG2) [µM] | IC50 (MCF7) [µM] | IC50 (HEp-2) [µM] | Activity (WISH) | Activity (WI-38) | IC50 at 48 h [1] [µM] | IC50 at 48 h [2] [µM]
N#Cc1sc(Nc2ccccc2)nc1NC(=O)CNNCC(=O)c1cc2ccccc2oc1=O | 45.5 | 37.6 | 49.4 | 34.1 | 67.2 |  |  |  | 
COc1cccc2c1C(=O)c1c(O)c3c(c(O)c1C2=O)C[C@@](O)(C(=O)CO)C[C@@H]3O[C@H]1C[C@H](N)[C@H](O)[C@H](C)O1 [DOXORUBICIN] |  |  |  |  |  | Non-toxic | Non-toxic | 3.34 | 
N#Cc1sc(Nc2ccccc2)nc1NC(=O)CNNC(=O)c1ccccc1 | 69.8 | 68.6 | 74.3 | 50.4 | 92.2 |  |  |  | 
CCN(CC)CCNC(=O)c1c(C)[nH]c(/C=C2\C(=O)Nc3ccc(F)cc32)c1C [SUNITINIB] | 7.48 | 8.53 | 12.3 | 5.19 | 7.58 |  |  |  | 
N#Cc1sc(Nc2ccccc2)nc1NC(=O)CNNCc1ccc([N+](=O)[O-])cc1 | 33.3 | 29.3 | 35.8 | 26.2 | 43.6 |  |  |  | 
Cc1ccc(C(=O)CNNCC(=O)Nc2nc(Nc3ccccc3)sc2C#N)cc1 | > 100 | 81.6 | 96.2 | 84.1 | > 100 |  |  |  | 
N#Cc1sc(Nc2ccccc2)nc1N1C(=N)SCC1=O | 31.4 | 44.1 | 35.3 | 22.5 | 69.5 |  |  |  | 
N#Cc1sc(Nc2ccccc2)nc1N1CSCC1=O | 94.3 | 86.5 | 91.5 | 72.8 | > 100 |  |  |  | 
N#Cc1sc(Nc2ccccc2)nc1Nc1cnc(N)o1 | 16.4 | 25.8 | 20.1 | 14.8 | 39.7 | Non-toxic | Non-toxic | 24 | 27.5
N#Cc1sc(Nc2ccccc2)nc1NC(=O)CN1CCN(Cc2ccccc2)CC1 | 53.2 | 56.9 | 61.5 | 45.3 | 82.5 |  |  |  | 
CN1CCN(CC(=O)Nc2nc(Nc3ccccc3)sc2C#N)CC1 | 67.8 | 70.5 | 73.2 | 52.7 | 94.7 |  |  |  | 
N#Cc1sc(Nc2ccccc2)nc1NC(=O)CNNC(=O)c1ccc(Cl)cc1 | 86.8 | 91.9 | 89.9 | 64.8 | > 100 |  |  |  | 
